Values quoted from earlier work, collected in EP4763224A1, “ANTICANCER AGENT CONTAINING NKT CELL LIGAND-CONTAINING LIPOSOME COMPOSITION” (RIKEN, priority 2023, dated 2025).

Tested on: NKT cells
Details: for activity relative to α-galactosylceramide: Patent Documents 1 to 5 and Non-Patent Document 10

Compound	activity relative to α-galactosylceramide	artificial activation of NKT cells (Non-Patent Document 9)
CCCCCCCCCCCCCCCCCCCCCCCCCC(=O)N[C@@H](CO[C@H]1O[C@H](COC(=O)NC)[C@H](O)[C@H](O)[C@H]1O)[C@H](O)[C@H](O)CCCCCCCCCCCCCC [RK-163]	several tens times higher	
CCCCCCCCCCCCCCCCCCCCCCCCCC(=O)N[C@@H](CO[C@H]1O[C@H](CO)[C@H](O)[C@H](O)[C@H]1O)[C@H](O)[C@H](O)CCCCCCCCCCCCCC [α-Galactosylceramide, reference compound]		strongly induce artificial activation of NKT cells
CCCCCCCCCCCCCCCCCCCCCCCCCC(=O)N[C@@H](CO[C@H]1O[C@H](COC)[C@H](O)[C@H](O)[C@H]1O)[C@H](O)[C@H](O)CCCCCCCCCCCCCC [RCAI-61]	several tens times higher	
CCCCCCCCCCCCCCCCCCCCCCCCCC(=O)N[C@@H](CO[C@H]1O[C@H](COC(=O)NO)[C@H](O)[C@H](O)[C@H]1O)[C@H](O)[C@H](O)CCCCCCCCCCCCCC [RCAI-137]	several tens times higher	
